From PubChem BioAssay AID1963425 (Molecular Pharmacology Branch, DTP, NCI, 2024)

System: 323965-272-R-J2-PDC complex spheroid growth, % test/control
Assay: Anticancer human tumor 323965-272-R-J2-PDC patient-derived pancreatic carcinoma cell line growth inhibition [Asc]
Settings: for IC50: curve of first compound; for viability, T/C: stronger effect = lower value
Summary of the method: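 Tumor cells were grown as multicellular spheroids with stromal HUVEC and mesenchymal stem cells and treated singly or in combination. Concentrations fell in half-log steps from the clinical Cmax, or from 10 microM where none was known.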
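Note: compound exposure lasted 7 days starting three days after spheroid seeding.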
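Throughout, for viability, T/C: 100% = DMSO vehicle control wells with viability set relative to vehicle.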

NC(=O)C(=Cn1cnc(-c2cc(C(F)(F)F)cc(C(F)(F)F)c2)n1)c1cncnc1 + CCN1C(C(=O)NC23CCC(C(=O)O)(CC2)CC3)C(c2cccc(Cl)c2F)C2(C(=O)Nc3cc(Cl)ccc32)C12CCCCC2
IC50 (second compound 0.00949 µM): > 300 nM
IC50 (second compound 0.03 µM): > 300 nM
IC50 (second compound 0.0949 µM): > 300 nM
IC50 (second compound 0.3 µM): > 300 nM
IC50 (second compound 0.949 µM): > 300 nM
IC50 (second compound 3 µM): > 300 nM
viability, T/C (second compound 0.00949 µM, first compound 0.000949 µM): 108%
viability, T/C (second compound 0.00949 µM, first compound 0.003 µM): 100%
viability, T/C (second compound 0.00949 µM, first compound 0.00949 µM): 98%
viability, T/C (second compound 0.00949 µM, first compound 0.03 µM): 105%
viability, T/C (second compound 0.00949 µM, first compound 0.0949 µM): 86.3%
viability, T/C (second compound 0.00949 µM, first compound 0.3 µM): 57.9%
viability, T/C (second compound 0.03 µM, first compound 0.000949 µM): 109%
viability, T/C (second compound 0.03 µM, first compound 0.003 µM): 105%
viability, T/C (second compound 0.03 µM, first compound 0.00949 µM): 96.8%
viability, T/C (second compound 0.03 µM, first compound 0.03 µM): 99.8%
viability, T/C (second compound 0.03 µM, first compound 0.0949 µM): 90%
viability, T/C (second compound 0.03 µM, first compound 0.3 µM): 68%
viability, T/C (second compound 0.0949 µM, first compound 0.000949 µM): 111%
viability, T/C (second compound 0.0949 µM, first compound 0.003 µM): 101%
viability, T/C (second compound 0.0949 µM, first compound 0.00949 µM): 109%
viability, T/C (second compound 0.0949 µM, first compound 0.03 µM): 100%
viability, T/C (second compound 0.0949 µM, first compound 0.0949 µM): 91.7%
viability, T/C (second compound 0.0949 µM, first compound 0.3 µM): 55.5%
viability, T/C (second compound 0.3 µM, first compound 0.000949 µM): 101%
viability, T/C (second compound 0.3 µM, first compound 0.003 µM): 103%
viability, T/C (second compound 0.3 µM, first compound 0.00949 µM): 101%
viability, T/C (second compound 0.3 µM, first compound 0.03 µM): 99%
viability, T/C (second compound 0.3 µM, first compound 0.0949 µM): 88.7%
viability, T/C (second compound 0.3 µM, first compound 0.3 µM): 55.2%
viability, T/C (second compound 0.949 µM, first compound 0.000949 µM): 103%
viability, T/C (second compound 0.949 µM, first compound 0.003 µM): 93.9%
viability, T/C (second compound 0.949 µM, first compound 0.00949 µM): 84.3%
viability, T/C (second compound 0.949 µM, first compound 0.03 µM): 87.7%
viability, T/C (second compound 0.949 µM, first compound 0.0949 µM): 85.7%
viability, T/C (second compound 0.949 µM, first compound 0.3 µM): 53.6%
viability, T/C (second compound 3 µM, first compound 0.000949 µM): 94%
viability, T/C (second compound 3 µM, first compound 0.003 µM): 101%
viability, T/C (second compound 3 µM, first compound 0.00949 µM): 89.5%
viability, T/C (second compound 3 µM, first compound 0.03 µM): 85.2%
viability, T/C (second compound 3 µM, first compound 0.0949 µM): 82.3%
viability, T/C (second compound 3 µM, first compound 0.3 µM): 53%

NC1CCC(NC2CC2c2ccccc2)CC1 (centres undefined) + CCN1C(C(=O)NC23CCC(C(=O)O)(CC2)CC3)C(c2cccc(Cl)c2F)C2(C(=O)Nc3cc(Cl)ccc32)C12CCCCC2
IC50 (second compound 0.00949 µM): > 100 nM
IC50 (second compound 0.03 µM): > 100 nM
IC50 (second compound 0.0949 µM): > 100 nM
IC50 (second compound 0.3 µM): > 100 nM
IC50 (second compound 0.949 µM): > 100 nM
IC50 (second compound 3 µM): > 100 nM
viability, T/C (second compound 0.00949 µM, first compound 0.000316 µM): 98.9%
viability, T/C (second compound 0.00949 µM, first compound 0.001 µM): 94.2%
viability, T/C (second compound 0.00949 µM, first compound 0.00316 µM): 94.8%
viability, T/C (second compound 0.00949 µM, first compound 0.01 µM): 97.5%
viability, T/C (second compound 0.00949 µM, first compound 0.0316 µM): 98.2%
viability, T/C (second compound 0.00949 µM, first compound 0.1 µM): 88.2%
viability, T/C (second compound 0.03 µM, first compound 0.000316 µM): 97.3%
viability, T/C (second compound 0.03 µM, first compound 0.001 µM): 99.5%
viability, T/C (second compound 0.03 µM, first compound 0.00316 µM): 103%
viability, T/C (second compound 0.03 µM, first compound 0.01 µM): 102%
viability, T/C (second compound 0.03 µM, first compound 0.0316 µM): 97.9%
viability, T/C (second compound 0.03 µM, first compound 0.1 µM): 92.8%
viability, T/C (second compound 0.0949 µM, first compound 0.000316 µM): 116%
viability, T/C (second compound 0.0949 µM, first compound 0.001 µM): 91%
viability, T/C (second compound 0.0949 µM, first compound 0.00316 µM): 104%
viability, T/C (second compound 0.0949 µM, first compound 0.01 µM): 99.9%
viability, T/C (second compound 0.0949 µM, first compound 0.0316 µM): 101%
viability, T/C (second compound 0.0949 µM, first compound 0.1 µM): 88.9%
viability, T/C (second compound 0.3 µM, first compound 0.000316 µM): 99.6%
viability, T/C (second compound 0.3 µM, first compound 0.001 µM): 94.2%
viability, T/C (second compound 0.3 µM, first compound 0.00316 µM): 101%
viability, T/C (second compound 0.3 µM, first compound 0.01 µM): 96.8%
viability, T/C (second compound 0.3 µM, first compound 0.0316 µM): 99.7%
viability, T/C (second compound 0.3 µM, first compound 0.1 µM): 88.3%
viability, T/C (second compound 0.949 µM, first compound 0.000316 µM): 102%
viability, T/C (second compound 0.949 µM, first compound 0.001 µM): 95.5%
viability, T/C (second compound 0.949 µM, first compound 0.00316 µM): 94.8%
viability, T/C (second compound 0.949 µM, first compound 0.01 µM): 92.5%
viability, T/C (second compound 0.949 µM, first compound 0.0316 µM): 106%
viability, T/C (second compound 0.949 µM, first compound 0.1 µM): 96%
viability, T/C (second compound 3 µM, first compound 0.000316 µM): 98.6%
viability, T/C (second compound 3 µM, first compound 0.001 µM): 88.3%
viability, T/C (second compound 3 µM, first compound 0.00316 µM): 90.2%
viability, T/C (second compound 3 µM, first compound 0.01 µM): 97.2%
viability, T/C (second compound 3 µM, first compound 0.0316 µM): 96.4%
viability, T/C (second compound 3 µM, first compound 0.1 µM): 87.7%
